Patent US10550143B2, “C,O-spiro aryl glycoside compounds, preparation therefor and use thereof” (SHANGHAI INSTITUTE OF MATERIA MEDICA, CHINESE ACADEMY OF …, priority 2015, dated 2020)

Biological target: T1, human sodium-glucose cotransporter 2 (SGLT2) (Homo sapiens, UniProt P31639)
T1 construct: expressed in transfected cells; host or cells: NIH3T3 (mouse fibroblast) cells expressing hSGLT2
T1 sequence (P31639 1-672): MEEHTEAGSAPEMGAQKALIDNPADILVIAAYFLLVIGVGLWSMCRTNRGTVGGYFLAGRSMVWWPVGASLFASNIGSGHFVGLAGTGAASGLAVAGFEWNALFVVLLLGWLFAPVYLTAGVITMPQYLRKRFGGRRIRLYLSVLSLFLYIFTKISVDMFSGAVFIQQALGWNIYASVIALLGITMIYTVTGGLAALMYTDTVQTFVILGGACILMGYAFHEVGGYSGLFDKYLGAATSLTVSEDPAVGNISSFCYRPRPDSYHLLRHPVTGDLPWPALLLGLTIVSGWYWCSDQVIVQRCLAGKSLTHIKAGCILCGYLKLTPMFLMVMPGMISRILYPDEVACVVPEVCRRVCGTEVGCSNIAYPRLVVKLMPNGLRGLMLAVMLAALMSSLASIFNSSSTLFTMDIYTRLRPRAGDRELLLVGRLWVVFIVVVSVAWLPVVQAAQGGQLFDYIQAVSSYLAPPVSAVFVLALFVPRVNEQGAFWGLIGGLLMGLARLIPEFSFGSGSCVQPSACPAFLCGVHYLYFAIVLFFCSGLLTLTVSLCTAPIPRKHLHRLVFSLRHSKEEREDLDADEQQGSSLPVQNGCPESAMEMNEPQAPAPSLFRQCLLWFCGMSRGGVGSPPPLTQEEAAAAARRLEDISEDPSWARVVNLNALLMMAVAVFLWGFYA
Assay: In vitro SGLT2 inhibition, methyl-α-D-[U-14C]glucopyranoside uptake in NIH3T3-hSGLT2 cells
Assay type: cell-based
Conditions: for inhibition at 0.01 µM: SGLT2, 10 nM, read-out: % Inhibition rate ± SD 10 nM; for inhibition at 0.1 µM: SGLT2, 100 nM, read-out: % Inhibition rate ± SD 100 nM
Method: Inhibition of the compounds of formula I against human sodium-glucose cotransporter 2 (SGLT2) was determined experimentally and the experimental procedures were carried out as reference^1.
Methyl-α-D-[U-^14C] glucopyranoside (Perkin Elmer) Dimethylsulfoxide (Genebase, Prod No: 0231)
(1) Primary screening of hSGLT2 are conducted with two concentrations, 100 nM and 10 nM;
SGLT2 transports D-glucose at 1:1 sodium-glucose ratio, glucose is replaced by the non-metabolic and isotope labeled methyl-aD-[U-^14C] glucopyranoside and methyl-aD-glucopyranoside, and the amount of isotope transferred into the cells was determined.
1) 0.2% gelatin in a 96-well plate was put in a 37° C. incubator for further use;
2) NIH3T3-hSGLT2 cells were injected into 96-well plates, 40000/well, and 100 μL culture medium per well:
3) the fluid was changed in the next day, and sodium butyrate was added into medium at a final concentration of 2 mM;
4) wash the cells with 100 μL of KRH—Na^+ for 3 times and incubate cells with 50 μL for 30 minutes. Cells were changed to 50 μL of compound in KRH—Na^+, uptake buffer (KRH—Na^+ and methyl-α-D-[U-^14C]glucopyranoside and ⅙ mM methyl-α-D-glucopyranoside at 10 μL per well) was added; KRH-acetylcholine solution was used as background control instead of KRH-Na^+
5) washed with 100 μL PBS for 3 times, dried, 50 μL lysate and 150 μL scintillation fluid were added, the membrane was covered and flattened, shaken on a shaker to mix thoroughly, centrifuged at 1500 rpm at 4° C. for 3 min, taken out and read;
6) the results were analyses.
The inhibition rate (% Inhibiton) of each sample at each concentration was calculated by dividing the value of the compound well value minus the background value by the value of the DMSO control well value minus the background value.
IC50 is calculated as follows: […]
The y value is the activity or inhibition percent, the x value is the concentration of the corresponding compound, top (the maximum y value of the curve), bottom (the minimum y value of the curve).

Structure (SMILES) | inhibition at 0.01 µM | inhibition at 0.1 µM
CCCc1ccc(Cc2ccc3c(c2)[C@]2(OC3)O[C@H](C)[C@@H](O)[C@H](O)[C@H]2O)cc1 [Example A3, (1S,3′R,4′S,5′S,6′R)-6′-methyl-6-(4-propylbenzyl)-3′,4′,5′,6′-tetrahydro-3H-spiro[isobenzofuran-1,2′-pyran]-3′,4′,5′-triol] | 23.1 ± 18.5% | 31 ± 9.7%
C[C@H]1O[C@]2(OCc3ccc(Cc4ccc(-c5ccc(F)cc5)s4)cc32)[C@H](O)[C@@H](O)[C@@H]1O [Example A11, (1S,3′R,4′S,5′S,6′R)-6′-methyl-6-((5-(4-fluorophenyl)thienyl)-2-methyl)-3′,4′,5′,6′-tetrahydro-3H-spiro[isobenzofuran-1,2′-pyran]-3′,4′,5′-triol] | 29.4 ± 11.1% | 31.4 ± 8.1%
CCc1ccc(C(O)c2cc3c(cc2Cl)CO[C@]32O[C@H](C)[C@@H](O)[C@H](O)[C@H]2O)s1 (some centres unmarked) [Example A120] | 4 ± 9.2% | 22.8 ± 8.1%
CCOc1ccc(Cc2ccc3c(c2)[C@]2(OC3)O[C@H](C)[C@@H](O)[C@H](O)[C@H]2O)cc1 [Example A6, (1S,3′R,4′S,5′S,6′R)-6′-methyl-6-(4-ethyoxylbenzyl)-3′,4′,5′,6′-tetrahydro-3H-spiro[isobenzofuran-1,2′-pyran]-3′,4′,5′-triol] | 27 ± 15.7% | 27.6 ± 3.1%
C[C@H]1O[C@]2(OCc3cc(Cl)c(Cc4ccc(C5(C#N)CC5)s4)cc32)[C@H](O)[C@@H](O)[C@@H]1O [Example A109, 1-(5-(((1S,3′R,4′S,5′S,6′R)-5-chloro-3′,4′,5′-trihydroxy-6′-methyl-3′,4′,5′,6′-tetrahydro-3H-spiro[isobenzofuran-1,2′-pyran]-6-yl)methyl)thiophene-2-yl)cyclopropane-1-formonitrile] | 86.8 ± 1.6% | 62.6 ± 7.2%
C[C@H]1O[C@]2(OCc3cc(Cl)c(Cc4ccc5occc5c4)cc32)[C@H](O)[C@@H](O)[C@@H]1O [Example A106, (1S,3′R,4′S,5′S,6′R)-6-(benzofuran-5-ylmethyl)-5-chloro-6′-methyl-3′,4′,5′,6′-tetrahydro-3H-spiro[isobenzofuran-1,2′-pyran]-3′,4′,5′-triol] | 4.8 ± 3.9% | 50.8 ± 7.5%
C[C@H]1O[C@]2(OCc3cc(Cl)c(C(=O)c4ccc(C(F)(F)F)cc4)cc32)[C@H](O)[C@@H](O)[C@@H]1O [Example A111, ((1S,3′R,4′S,5′S,6′R)-5-chloro-3′,4′,5′-trihydroxy-6′-methyl-3′,4′,5′,6′-tetrahydro-3H-spiro[isobenzofuran-1,2′-pyran]-6-yl)(4-(trifluoromethyl)phenyl)ketone] | 46.2 ± 11.1% | 39.9 ± 10.8%
C[C@H]1O[C@]2(OCc3cc(F)c(Cc4cc5ccccc5o4)cc32)[C@H](O)[C@@H](O)[C@@H]1O [Example A48, (1S,3′R,4′S,5′S,6′R)-6′-methyl-6-(benzo[b]furan-2-methyl)-5-fluoro-3′,4′,5′,6′-tetrahydro-3H-spiro[isobenzofuran-1,2′-pyran]-3′,4′,5′-triol] | 13.1 ± 8.4% | 33.2 ± 10.1%
C[C@H]1O[C@]2(OCc3cc(Cl)c(Cc4ccc(C5(C#N)CC5)cc4)cc32)[C@H](O)[C@@H](O)[C@@H]1O [Example A108, 1-(4-(((1S,3′R,4′S,5′S,6′R)-5-chloro-3′,4′,5′-trihydroxy-6′-methyl-3′,4′,5′,6′-tetrahydro-3H-spiro[isobenzofuran-1,2′-pyran]-6-yl)methyl)phenyl)cyclopropane-1-formonitrile] | 100.4 ± 0.9% | 96.2 ± 3.4%
C[C@H]1O[C@]2(OCc3cc(Cl)c(C(=O)c4ccc(C(F)(F)F)c(F)c4)cc32)[C@H](O)[C@@H](O)[C@@H]1O [Example A112, ((1S,3′R,4′S,5′S,6′R)-5-chloro-3′,4′,5′-trihydroxy-6′-methyl-3′,4′,5′,6′-tetrahydro-3H-spiro[isobenzofuran-1,2′-pyran]-6-yl)(3-fluoro-4-(trifluoromethyl)phenyl)ketone] | 34.9 ± 23% | 44.3 ± 15.6%
C[C@H]1O[C@]2(OCc3cc(Cl)c(Cc4ccc(C(F)(F)F)cc4)cc32)[C@H](O)[C@@H](O)[C@@H]1O [Example A110] | 93 ± 5.9% | 71.5 ± 7.2%
Cc1ccc(Cc2ccc3c(c2)[C@]2(OC3)O[C@H](C)[C@@H](O)[C@H](O)[C@H]2O)cc1 [Example A1, (1S,3′R,4′S,5′S,6′R)-6′-methyl-6-(4-methylbenzyl)-3′,4′,5′,6′-tetrahydro-3H-spiro[isobenzofuran-1,2′-pyran]-3′,4′,5′-triol] | 21.2 ± 14.4% | 26.9 ± 9.1%
Cc1ccc(Cc2ccc3c(c2)[C@]2(OC3)O[C@H](C)[C@@H](O)[C@H](O)[C@H]2O)s1 [Example A7, (1S,3′R,4′S,5′S,6′R)-6′-methyl-6-((5-methylthienyl)-2-methyl)-3′,4′,5′,6′-tetrahydro-3H-spiro [isobenzofuran-1,2′-pyran]-3′,4′,5′-triol] | 15.7 ± 25.2% | 27.9 ± 1.9%
C#Cc1cc2c(cc1Cc1ccc(CC)s1)[C@]1(OC2)O[C@H](C)[C@@H](O)[C@H](O)[C@H]1O [Example A85, (1S,3′R,4′S,5′S,6′R)-5-ethynyl-6′-methyl-6-((5-ethylthienyl)-2-methyl)-3′,4′,5′,6′-tetrahydro-3H-spiro[isobenzofuran-1,2′-pyran]-3′,4′,5′-triol] | 33.9 ± 14.1% | 50.4 ± 16.9%
CCCc1ccc(Cc2ccc3c(c2)[C@]2(OC3)O[C@H](C)[C@@H](O)[C@H](O)[C@H]2O)s1 [Example A9, (1S,3′R,4′S,5′S,6′R)-6′-methyl-6-((5-propylthienyl)-2-methyl)-3′,4′,5′,6′-tetrahydro-3H-spiro [isobenzofuran-1,2′-pyran]-3′,4′,5′-triol] | 34.7 ± 24% | 52.8 ± 15.5%
C[C@H]1O[C@]2(OCc3ccc(Cc4ccc(-c5ccccn5)s4)cc32)[C@H](O)[C@@H](O)[C@@H]1O [Example A13, (1S,3′R,4′S,5′S,6′R)-6′-methyl-6-((5-(2-pyridyl)thienyl)-2-methyl)-3′,4′,5′,6′-tetrahydro-3H-spiro[isobenzofuran-1,2′-pyran]-3′,4′,5′-triol] | 31 ± 30.5% | 46.9 ± 8.6%
C[C@H]1O[C@]2(OCc3ccc(Cc4cc5ccccc5s4)cc32)[C@H](O)[C@@H](O)[C@@H]1O [Example A15, (1S,3′R,4′S,5′S,6′R)-6′-methyl-6-(benzo[b]thiophene-2-methyl)-3′,4′,5′,6′-tetrahydro-3H-spiro[isobenzofuran-1,2′-pyran]-3′,4′,5′-triol] | 46.9 ± 4% | 50.8 ± 4.4%
C[C@H]1O[C@]2(OCc3cc(F)c(Cc4ccc(-c5ccccn5)s4)cc32)[C@H](O)[C@@H](O)[C@@H]1O [Example A46, (1S,3′R,4′S,5′S,6′R)-6′-methyl-6-((5-(2-pyridyl)thienyl)-2-methyl)-5-fluoro-3′,4′,5′,6′-tetrahydro-3H-spiro[isobenzofuran-1,2′-pyran]-3′,4′,5′-triol] | 16 ± 14.8% | 63.6 ± 2.4%
CC(=O)c1ccc(Cc2cc3c(cc2Cl)CO[C@]32O[C@H](C)[C@@H](O)[C@H](O)[C@H]2O)s1 [Example A117, 1-(5-(((1S,3′R,4′S,5′S,6′R)-5-chloro-3′,4′,5′-trihydroxy-6′-methyl-3′,4′,5′,6′-tetrahydro-3H-spiro[isobenzofuran-1,2′-pyran]-6-yl)methyl)thiophene-2-yl)ethanone] | 30.1 ± 1% | 22.6 ± 8.3%
